pIC50: −log10 of the molar value. In brackets after ≈: the same amount, converted by molar mass. Like-named read-outs stand apart in the source and are kept apart here.

In one series the target is T1, MRP (Homo sapiens, UniProt P33527).
T1 construct: endogenous in cells
Briefly: Inhibition of MRP-mediated calcein-AM extrusion (calcein accumulation) in S1MRP and HL60 ADR cells. The class given is cell-based.

In series [1] the target is T2, MDR1 (Homo sapiens, UniProt P08183). Briefly: Inhibition of MDR1-mediated calcein-AM extrusion (calcein accumulation) in 3T3 MDR and K562 MDR cells.
In series [2] the test system is P388-C cells. Briefly: Calcein accumulation by fluorescent spectrophotometry in control cells. The format is cell-based, murine. To be noted: 100 μmol/l verapamil. The text has this: (§1) Elapsed time is shown on the abscissa and fluorescence intensity in arbitrary units is shown on the ordinate.
In the next series the test system is KB3 cells. Nature of the series: Calcein accumulation by flow cytometry in control cells. To be noted: 100 μmol/l verapamil pretreatment 5 min, control cell line KB3.
Another series concerns P388-MDRa cells. Nature of the series: Cytotoxicity assay, adriamycin resistance. The following applies: Mus musculus; P388-MDRa cell line. The class given is cell-based, murine.
Source text: as §1

The subject of another series is P388-MDRb cells. Briefly: Cytotoxicity assay, adriamycin resistance. The class given is cell-based, murine. To be noted: Mus musculus; P388-MDRb cell line.
Source text: as §1

Series [3] concerns P388-C cells. Nature of the series: Cytotoxicity assay, adriamycin resistance. To be noted: Mus musculus; P388-C control cell line. The class given is cell-based, murine.
Source text: as §1

The test system of a further series is K562-mMDR cells. Briefly: Cytotoxicity assay, 3 days culture with adriamycin. The format is cell-based. The following applies: Homo sapiens, 72 h, K562-mMDR cell line (inactive mutant MDR protein), read-out: Resistance to Adriamycin (IC50, ng/ml). On the procedure: (§2) Cells were cultured for 3 days under standard conditions in the presence of 0.1-100 ng/ml adriamycin. The number of cells in the different cell cultures is given as the percentage of the number of cells counted in the culture not treated with the drug. As it can well be seen on FIG. 5, the really expressed drug resistance is in much better accordance with the results obtained by the method of the invention based on the measurement of calcein accumulation than with those obtained by the traditional immunological measurement of MDR expression.
(§3) Cells were cultured for 3 days under standard conditions in the presence of 0.1-100 ng/ml adriamycin. The number of cells in the different cell cultures is given as the percentage of the number of cells counted in the culture not treated with the drug.

For another series, the system named is K562-MDR cells. Nature of the series: Cytotoxicity assay, 3 days culture with adriamycin. The format is cell-based. The following applies: Homo sapiens, 72 h, K562-MDR cell line, read-out: Resistance to Adriamycin (IC50, ng/ml). On the procedure: as §2, §3
In a further series the test system is K562-C cells. Briefly: Cytotoxicity assay, 3 days culture with adriamycin. The format is cell-based. The following applies: Homo sapiens, 72 h, K562-C cell line, read-out: Resistance to Adriamycin (IC50, ng/ml). On the procedure: as §2, §3
The target in series [4] is T2, MDR1.
A further series has as its target MDR dependent ATPase (Homo sapiens, UniProt P08183). The following applies: cited from earlier work.
Where [5] appears, read: inhibition of MRP-mediated calcein-AM extrusion, S1MRP and HL60 ADR cells, range of at least 3 independent experiments with each cell line, read-out: IC50 MRP.
Setting [6] is: read-out: IC50 MDR1, inhibition of MDR1-mediated calcein-AM extrusion, 3T3 MDR and K562 MDR cells, range of at least 3 independent experiments, > = 50% inhibition not achieved (a solubility problem, b esterase inhibition).

T1 sequence (P33527 whole entry): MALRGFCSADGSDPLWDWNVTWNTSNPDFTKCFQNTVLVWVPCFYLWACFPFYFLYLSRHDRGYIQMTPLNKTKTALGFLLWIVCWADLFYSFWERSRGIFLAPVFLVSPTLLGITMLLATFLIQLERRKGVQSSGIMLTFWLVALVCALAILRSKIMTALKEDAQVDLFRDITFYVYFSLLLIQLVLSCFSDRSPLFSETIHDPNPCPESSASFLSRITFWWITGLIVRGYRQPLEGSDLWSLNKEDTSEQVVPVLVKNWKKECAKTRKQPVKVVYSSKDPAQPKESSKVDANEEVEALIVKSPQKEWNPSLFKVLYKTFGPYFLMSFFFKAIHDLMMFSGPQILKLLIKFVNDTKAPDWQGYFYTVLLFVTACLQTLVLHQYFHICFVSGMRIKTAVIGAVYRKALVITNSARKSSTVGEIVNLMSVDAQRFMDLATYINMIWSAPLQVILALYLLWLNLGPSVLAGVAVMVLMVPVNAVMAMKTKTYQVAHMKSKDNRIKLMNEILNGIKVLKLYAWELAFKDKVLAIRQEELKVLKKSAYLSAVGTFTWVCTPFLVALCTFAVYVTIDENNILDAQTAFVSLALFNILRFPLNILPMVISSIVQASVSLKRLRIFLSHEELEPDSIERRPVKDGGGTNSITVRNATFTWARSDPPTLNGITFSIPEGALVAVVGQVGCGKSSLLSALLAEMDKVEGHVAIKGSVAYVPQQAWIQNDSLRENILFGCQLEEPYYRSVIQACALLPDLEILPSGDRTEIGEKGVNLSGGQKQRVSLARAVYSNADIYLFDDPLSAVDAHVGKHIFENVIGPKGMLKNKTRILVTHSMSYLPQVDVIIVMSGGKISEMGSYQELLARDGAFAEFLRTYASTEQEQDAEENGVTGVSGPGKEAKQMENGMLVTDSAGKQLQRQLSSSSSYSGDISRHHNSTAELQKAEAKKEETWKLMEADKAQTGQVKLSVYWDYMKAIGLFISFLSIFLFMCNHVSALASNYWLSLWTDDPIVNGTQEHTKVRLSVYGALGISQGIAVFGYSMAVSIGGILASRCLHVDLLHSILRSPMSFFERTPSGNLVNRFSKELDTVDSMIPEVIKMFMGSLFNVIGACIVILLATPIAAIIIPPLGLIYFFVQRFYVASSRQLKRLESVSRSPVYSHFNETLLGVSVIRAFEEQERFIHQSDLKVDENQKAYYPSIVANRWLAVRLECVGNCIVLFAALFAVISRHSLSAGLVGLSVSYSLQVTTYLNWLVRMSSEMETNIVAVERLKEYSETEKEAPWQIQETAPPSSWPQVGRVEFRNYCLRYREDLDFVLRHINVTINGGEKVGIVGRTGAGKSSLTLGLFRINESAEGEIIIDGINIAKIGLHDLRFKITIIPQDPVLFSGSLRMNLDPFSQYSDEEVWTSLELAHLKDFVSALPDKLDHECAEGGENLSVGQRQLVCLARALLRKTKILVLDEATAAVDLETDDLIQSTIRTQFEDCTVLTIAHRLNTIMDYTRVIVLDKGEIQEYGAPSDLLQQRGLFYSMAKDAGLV
T2 sequence (P08183 whole entry): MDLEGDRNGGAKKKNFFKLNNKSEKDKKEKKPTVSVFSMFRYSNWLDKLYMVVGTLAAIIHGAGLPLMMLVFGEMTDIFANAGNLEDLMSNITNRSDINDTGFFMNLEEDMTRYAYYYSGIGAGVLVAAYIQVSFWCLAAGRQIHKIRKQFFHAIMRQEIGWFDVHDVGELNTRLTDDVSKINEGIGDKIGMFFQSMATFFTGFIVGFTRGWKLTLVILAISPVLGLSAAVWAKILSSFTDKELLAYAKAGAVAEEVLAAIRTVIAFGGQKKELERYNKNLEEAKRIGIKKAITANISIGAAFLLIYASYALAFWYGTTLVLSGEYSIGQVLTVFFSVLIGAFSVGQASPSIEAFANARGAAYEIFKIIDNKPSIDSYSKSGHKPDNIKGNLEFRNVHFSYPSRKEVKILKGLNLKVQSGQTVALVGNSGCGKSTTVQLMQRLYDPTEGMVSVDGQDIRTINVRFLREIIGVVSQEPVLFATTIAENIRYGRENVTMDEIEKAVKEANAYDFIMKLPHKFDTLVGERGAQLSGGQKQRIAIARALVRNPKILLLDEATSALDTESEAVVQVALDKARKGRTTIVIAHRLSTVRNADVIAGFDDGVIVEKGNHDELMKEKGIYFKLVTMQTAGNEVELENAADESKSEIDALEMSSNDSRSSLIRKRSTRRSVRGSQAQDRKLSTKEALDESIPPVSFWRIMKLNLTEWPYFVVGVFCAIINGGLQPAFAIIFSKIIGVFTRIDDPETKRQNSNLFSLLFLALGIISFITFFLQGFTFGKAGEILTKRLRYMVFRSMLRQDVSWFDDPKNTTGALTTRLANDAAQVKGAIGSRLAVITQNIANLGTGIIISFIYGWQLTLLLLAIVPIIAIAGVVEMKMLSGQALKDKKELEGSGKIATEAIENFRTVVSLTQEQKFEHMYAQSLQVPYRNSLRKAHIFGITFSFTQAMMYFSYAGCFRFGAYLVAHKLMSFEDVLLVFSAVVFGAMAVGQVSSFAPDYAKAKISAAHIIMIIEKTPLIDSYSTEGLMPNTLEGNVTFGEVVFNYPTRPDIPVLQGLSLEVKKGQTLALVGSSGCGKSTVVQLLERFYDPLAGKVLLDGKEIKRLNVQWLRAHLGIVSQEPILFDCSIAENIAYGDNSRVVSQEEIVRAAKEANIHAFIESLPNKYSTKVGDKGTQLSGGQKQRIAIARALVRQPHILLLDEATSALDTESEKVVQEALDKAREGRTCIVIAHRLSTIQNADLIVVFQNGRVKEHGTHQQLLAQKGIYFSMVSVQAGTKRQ
Sequence of MDR dependent ATPase (P08183 whole entry): as above
Method for KB3 cells: In the experiments shown in FIG. 2 a drug sensitive (control, cell line KB3) and three increasingly multi-drug resistant (cell lines KB-V1a-c) human epidermoid carcinoma cell lines were examined.
As all the specimens were incubated for the same time (10 min) with calcein-AM, the measure of the accumulation of calcein detected exactly after 10 minutes can be taken as the rate of calcein accumulation.

On to `C=C[C@H]1C[N@@]2CC[C@H]1C[C@H]2[C@H](O)c1ccnc2ccc(OC)cc12` [Quinine], for which, on MRP (setting [5]), the pIC50 (as a rule, −log10 of the IC50, conventionally taken in molar units) is 4.00 to 4.30. Take `O=C1OC(c2ccc(O)c(S(=O)(=O)O)c2)(c2ccc(O)c(S(=O)(=O)O)c2)c2c(Br)c(Br)c(Br)c(Br)c21` [Bromosulfophthalein]: the pIC50 is under 3.00 on MDR1 [1] (setting [6]) and 3.82 to 4.00 at MRP (setting [5]). For the compound `COc1ccc(CCN(C)CCCC(C#N)(c2ccc(OC)c(OC)c2)C(C)C)cc1OC` (centres unmarked) [Verapamil], the “effect on rate of calcein accumulation” value in the series on P388-C cells [2] was “not influenced”. The “effect on calcein accumulation” value in the series with KB3 cells is recorded as “no detectable effect”.

As for `C=C(CC)C(=O)c1ccc(OCC(=O)O)c(Cl)c1Cl` [Ethacrynic acid], the results for the pIC50 at MDR1 [1] and on MRP (setting [5]) were under 3.10 and 4.52 to 4.70, respectively. `O=C(O)CCCc1ccc(N(CCCl)CCCl)cc1` [Chlorambucil]: the pIC50 on MDR1 [1] was under 3.30; at MRP, 4.30 to 4.52. For the compound `CC[C@H]1/C=C/C=C/C[C@@H](C)[C@H](O)[C@@](C)(O)C(=O)[C@@H](C)[C@H](O)[C@@H](C)C(=O)[C@@H](C)[C@H](O)[C@@H](C)/C=C/C(=O)O[C@@H]2[C@H](C)[C@H](CC1)O[C@]1(CC[C@H](C)[C@H](C[C@@H](C)O)O1)[C@H]2C` [Oligomycin], the pIC50 at MDR1 [1] and at MRP (setting [5]) was 5.70 to 6.00 throughout.

Take `COc1cccc2c1C(=O)c1c(O)c3c(c(O)c1C2=O)C[C@@](O)(C(=O)CO)C[C@@H]3O[C@H]1C[C@H](N)[C@H](O)[C@H](C)O1` [Adriamycin]: the IC50 amounted to 4 ng/mL (≈ 7.36 nM) with P388-MDRa cells; 9 ng/mL (≈ 16.6 nM) in the series with P388-MDRb cells; 0.5 ng/mL (≈ 0.92 nM) in the series on P388-C cells [3]; 0.35 ng/mL (≈ 0.644 nM) in the series on K562-mMDR cells; 3.1 ng/mL (≈ 5.7 nM) in the series with K562-MDR cells; 0.7 ng/mL (≈ 1.29 nM) in the series on K562-C cells. For the compound `N#CC(C#N)=NNc1cccc(Cl)c1` [CCCP], the values for the pIC50 against MDR1 [4] and on MRP (setting [5]) were under 3.70 and 4.52 to 5.00, respectively.

Consider `CC/C(=C(\c1ccccc1)c1ccc(OCCN(C)C)cc1)c1ccccc1` [Tamoxifen], for which the pIC50 at MRP (setting [5]) was 5.22 to 5.52. Regarding `COc1ccc2c(c1)c(CC(=O)O)c(C)n2C(=O)c1ccc(Cl)cc1` [Indomethacin], the pIC50 at MDR1 [1] was under 3.10; on MRP (setting [5]), 4.70 to 5.00. For the compound `CCCCC[C@H](O)/C=C/[C@H]1C=CC(=O)[C@@H]1CCCCCCC(=O)O` [Prostaglandin A1], the pIC50 is under 4.00 at MDR1 [1] (setting [6]) and 5.30 to 5.52 on MRP (setting [5]). For `O=c1c(-c2ccc(O)cc2)coc2cc(O)cc(O)c12` [Genistein], the figures for the pIC50 at MDR1 [1] and on MRP (setting [5]) were under 3.00 and 3.70 to 3.82, respectively. With `O=[N+]([O-])c1ccc(O)c([N+](=O)[O-])c1` [2,4-DNP], the pIC50 on MDR1 [1] (setting [6]) is under 3.70; on MRP (setting [5]), 4.30 to 4.52. As for `O=C1C(CC[S+]([O-])c2ccccc2)C(=O)N(c2ccccc2)N1c1ccccc1` (centres unmarked) [Sulfinpyrazone], the pIC50 at MDR1 [1] was under 2.70; at MRP (setting [5]), 3.30 to 3.52. On to `CCc1oc2ccccc2c1C(=O)c1cc(Br)c(O)c(Br)c1` [Benzbromarone], for which, at MDR1 [1], the pIC50 was under 3.30.

For `CCN1C(=O)C=CC1=O` [NEM, N-ethylmaleimide], the pIC50 on MDR1 [1] is under 4.30; on MRP (setting [5]) it was 6.30 to 6.70. Regarding `CC[C@]1(O)C[C@@H]2CN(CCc3c([nH]c4ccccc34)[C@@](C(=O)OC)(c3cc4c(cc3OC)N(C)[C@H]3[C@@](O)(C(=O)OC)[C@H](OC(C)=O)[C@]5(CC)C=CCN6CC[C@]43[C@@H]65)C2)C1` [Vinblastine], the pIC50 on MRP (setting [5]) is 5.30 to 5.70.

`Clc1ccc(COC(Cn2ccnc2)c2ccc(Cl)cc2Cl)cc1` (centres unmarked) [Econazole]: the pIC50 on MDR1 [1] was 5.52 to 6.00; at MRP (setting [5]), 5.00 to 5.52. Take “calcein-acetoxy-methylester [calcein-AM]”: the “Ka, activation of the MDR dependent ATPase” value on MDR dependent ATPase was at most 1 µmol/L. As for `CCCN(CCC)S(=O)(=O)c1ccc(C(=O)O)cc1` [Probenacid, Probenecid], the figures for the pIC50 at MDR1 [1] and on MRP (setting [5]) were under 2.70 and 3.10 to 3.30, respectively.

Take `C[CH2][Hg][S]c1ccccc1C(=O)[O-].[Na+]` [Merthiolate]: the figures for the pIC50 on MDR1 [1] (setting [6]) and at MRP (setting [5]) were under 3.70 and 4.70 to 5.00, respectively.

Values taken from patent US6391656B2, “Assay and reagent kit for evaluation of multi-drug resistance in cells” (SOLVO Biotechnology, priority 1994, dated 2002).
